Experimental findings from ChEMBL document CHEMBL3886985, “Benzothiophene derivative” (2016) are described below.

The target in one assay is T1, cAMP and cAMP-inhibited cGMP 3',5'-cyclic phosphodiesterase 10A (Homo sapiens, UniProt Q9Y233). The assay can be described thus: Activity Assay: Inhibitory activity-1 assay: To a solution containing 20 mM Tris-HCl (pH 7.5), 1 mM MgCl2, 100 μM EDTA, 330 μg/ml bovine serum albumin, 50 kU/ml 5′-nucleotidase, 0.1 μCi 3H-cAMP (64 nM cAMP), and PDE10A (H-PDE10A2, Human Phosphodiesterase 10A2, Scottish Biomedical), a test compound was added, and the mixture was reacted at 25° C. for 2 hours. To the reaction solution, QAE-Sephadex (17-0190-01, GE Healthcare Japan Corp.) suspended in 10 mM HEPES-Na (pH 7.0) (hereinafter, also referred to as a “QAE-Sephadex suspension”) was added, and the mixture was shaken for 1 minute and left standing for 5 minutes to obtain a supernatant. To the supernatant, a QAE-Sephadex suspension was further added, and the mixture was shaken for 1 minute and left standing for 5 minutes. Then, the obtained supernatant was transferred to LumaPlate (PerkinElmer, Inc.) and assayed using a radiation counter (TopCount NXT, PerkinElmer, Inc.).
T1 sequence (Q9Y233 whole entry): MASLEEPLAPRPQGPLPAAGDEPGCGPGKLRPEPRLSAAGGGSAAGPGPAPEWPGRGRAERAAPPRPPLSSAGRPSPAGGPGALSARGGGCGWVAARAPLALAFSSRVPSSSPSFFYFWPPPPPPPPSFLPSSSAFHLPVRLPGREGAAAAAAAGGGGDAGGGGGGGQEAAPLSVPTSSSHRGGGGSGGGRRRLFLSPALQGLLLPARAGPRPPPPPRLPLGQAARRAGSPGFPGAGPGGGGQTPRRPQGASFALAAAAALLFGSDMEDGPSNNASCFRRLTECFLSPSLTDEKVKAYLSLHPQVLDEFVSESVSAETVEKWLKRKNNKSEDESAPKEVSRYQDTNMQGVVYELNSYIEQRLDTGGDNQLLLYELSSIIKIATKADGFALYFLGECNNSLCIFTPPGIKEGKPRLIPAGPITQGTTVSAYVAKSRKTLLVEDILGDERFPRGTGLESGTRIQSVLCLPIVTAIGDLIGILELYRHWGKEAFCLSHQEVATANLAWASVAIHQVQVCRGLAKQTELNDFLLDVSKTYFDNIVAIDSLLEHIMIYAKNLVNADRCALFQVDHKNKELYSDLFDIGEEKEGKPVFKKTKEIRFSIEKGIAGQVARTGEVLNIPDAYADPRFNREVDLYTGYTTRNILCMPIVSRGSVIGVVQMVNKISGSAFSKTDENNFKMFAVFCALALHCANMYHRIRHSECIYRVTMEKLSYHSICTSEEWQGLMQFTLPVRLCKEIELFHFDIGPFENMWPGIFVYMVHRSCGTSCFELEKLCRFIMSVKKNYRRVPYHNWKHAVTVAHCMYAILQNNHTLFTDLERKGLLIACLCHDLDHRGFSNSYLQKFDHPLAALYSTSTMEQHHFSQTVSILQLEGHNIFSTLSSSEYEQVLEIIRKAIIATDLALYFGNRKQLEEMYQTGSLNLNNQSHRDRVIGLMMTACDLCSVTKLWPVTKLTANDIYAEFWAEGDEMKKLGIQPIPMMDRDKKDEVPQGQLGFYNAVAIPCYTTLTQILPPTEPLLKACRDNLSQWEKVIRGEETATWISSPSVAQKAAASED
With `COCc1ccc(C(C)=O)c2sc(C(=O)Nc3ccc4c(COP(=O)(O)O)cccc4n3)c(C)c12`, the IC50 was found to be 0.99 nM.

The target in the next assay is T1, cAMP and cAMP-inhibited cGMP 3',5'-cyclic phosphodiesterase 10A. The experiment in a line: Activity Assay: A human acute lymphoblastic […] T cell line MOLT-4 (which can be purchased under ATCC No. CRL-1582 from ATCC) was cultured in an RPMI1640 medium containing 10% fetal bovine serum to obtain 5108 MOLT-4 cells. The cells were recovered by centrifugation and suspended in 10 ml of buffer solution A (25 mM Tris-HCl, 5 mM 2-mercaptoethanol, 2 mM benzamidine, 2 mM EDTA, and 0.1 mM 4-(2-aminoethyl)benzenesulfonyl hydrochloride, pH 7.5). The cells were homogenized using a Polytron homogenizer and centrifuged (4° C., 25,000 g, 10 minutes). Then, the supernatant was further ultracentrifuged (4° C., 100,000 g, 60 minutes). The obtained supernatant was filtered through a 0.2um filter to obtain a soluble fraction.HiTrap Q HP column (5 ml2, GE Healthcare Japan Corp.) equilibrated with buffer solution A was charged with the obtained soluble fraction. Phosphodiesterase was eluted with 300 ml of buffer solution A containing a linear gradient solution of 0 to 0.8 M NaCl to recover sixty 5-ml fractions. Each fraction was tested for cAMP-metabolizing phosphodiesterase activity. […] In order to confirm whether or not PDE10A mRNA was expressed in the MOLT-4 cells, total RNA was prepared from the MOLT-4 cells according to a standard method and analyzed by RT-PCR using PDE10A gene-specific primers (PDE10A sense primer: 5'-[…]-3' (SEQ ID NO: 1) and PDE10A antisense primer: 5'-[…]-3' (SEQ ID NO: 2)). As a result, PDE10A mRNA was detected from the total RNA of the MOLT-4 cells. On the other hand, total RNA was prepared from Jurkat cells, one type of human T cell, and similarly subjected to RT-PCR. As a result, PDE10A mRNA was rarely detected. An active peak centered around 250 mM NaCl was not observed in fractions obtained by the treatment of Jurkat cells in the same way as above. Eur J Biochem. 1999, 266 (3), 1118-2 has reported that PDE10A from the rat striatum and testis is eluted as an active peak centered around 250 mM NaCl. Format: cell-based.
The molecule `COCc1ccc(C(C)=O)c2sc(C(=O)Nc3ccc4c(CN(C)C)cccc4n3)c(C)c12` had an IC50 of 1.8 nM.

In the case of `COCc1ccc(C(C)=O)c2sc(C(=O)Nc3ccc4c(COC(=O)CCC(=O)O)cccc4n3)c(C)c12`, the IC50 was 1 nM.

Consider `COCc1ccc(C(C)=O)c2sc(C(=O)Nc3cc(N(C)C)c4ccccc4n3)c(C)c12`, for which half-maximal inhibition (IC50) required 0.45 nM.

In turn, `COCc1ccc(C(C)=O)c2sc(C(=O)Nc3ccc4ccccc4n3)c(C)c12` displayed an IC50 of 1.1 nM.

Molecule `COCc1ccc(C(C)=O)c2sc(C(=O)Nc3ccc4c(CN5CCOCC5)cccc4n3)c(C)c12` returned an IC50 of 1.3 nM.

Regarding `COCc1ccc(C(C)=O)c2sc(C(=O)Nc3ccc4c(C(=O)N5CCN(C)CC5)cccc4n3)c(C)c12`, the IC50 came out at 0.31 nM.

Turning to `COCc1ccc(C(C)=O)c2sc(C(=O)Nc3ccc4c(CN5CC[C@@H](F)C5)cccc4n3)c(C)c12`, the IC50 stood at 1.2 nM.

By IC50 is commonly meant the midpoint of a concentration-inhibition curve.
